Results on 11 compounds are retold here after article PMC10341573, “Design, Synthesis, and Biological Evaluation of Novel Quinazolin-4(3H)-One-Based Histone Deacetylase 6 (HDAC6) Inhibitors for Anticancer Activity” (International Journal of Molecular Sciences, 2023).

“And” between values parts separate entries of the source, which are not always exact repeats. Equal values may be shown once. Read-outs that look alike come from different tables or passages of the source.

In data set [1] the test system is A549, MCF-7, and HT-29. Also noted: method as in doi:10.1016/j.molstruc.2022.132422. The following applies: most active in all cell lines examined (A549, MCF-7, HT-29); read-out: IC50, antiproliferative; cited from earlier work.
The subject of data set [2] is HCT-116 cell line. On the set-up: method as in PMID 33214036. Particulars: read-out: IC50, antiproliferative; cited from earlier work.
Data set [3] concerns the target T1, HDAC4 (Homo sapiens, UniProt P56524).
T1 construct: catalytic domain of HDAC4 (T648-T1057, full length: UniProt P56524); made in house; host or cells: E. coli BL21(DE3), pET14b vector
As to the kind of experiment: HDAC enzyme activity assay (fluorogenic, Boc-Lys(trifluoroacetyl)-AMC), HDAC4. The following applies: class IIa HDAC4; mean ± SD, triplicate. It counts as biochemical.

Data set [4] has as its target T2, HDAC6 (Homo sapiens, UniProt Q9UBN7).
T2 construct: Full-length recombinant HDAC6 was purchased from BPS Bioscience; purchased BPS Bioscience
T2 sequence (Q9UBN7 1-1215): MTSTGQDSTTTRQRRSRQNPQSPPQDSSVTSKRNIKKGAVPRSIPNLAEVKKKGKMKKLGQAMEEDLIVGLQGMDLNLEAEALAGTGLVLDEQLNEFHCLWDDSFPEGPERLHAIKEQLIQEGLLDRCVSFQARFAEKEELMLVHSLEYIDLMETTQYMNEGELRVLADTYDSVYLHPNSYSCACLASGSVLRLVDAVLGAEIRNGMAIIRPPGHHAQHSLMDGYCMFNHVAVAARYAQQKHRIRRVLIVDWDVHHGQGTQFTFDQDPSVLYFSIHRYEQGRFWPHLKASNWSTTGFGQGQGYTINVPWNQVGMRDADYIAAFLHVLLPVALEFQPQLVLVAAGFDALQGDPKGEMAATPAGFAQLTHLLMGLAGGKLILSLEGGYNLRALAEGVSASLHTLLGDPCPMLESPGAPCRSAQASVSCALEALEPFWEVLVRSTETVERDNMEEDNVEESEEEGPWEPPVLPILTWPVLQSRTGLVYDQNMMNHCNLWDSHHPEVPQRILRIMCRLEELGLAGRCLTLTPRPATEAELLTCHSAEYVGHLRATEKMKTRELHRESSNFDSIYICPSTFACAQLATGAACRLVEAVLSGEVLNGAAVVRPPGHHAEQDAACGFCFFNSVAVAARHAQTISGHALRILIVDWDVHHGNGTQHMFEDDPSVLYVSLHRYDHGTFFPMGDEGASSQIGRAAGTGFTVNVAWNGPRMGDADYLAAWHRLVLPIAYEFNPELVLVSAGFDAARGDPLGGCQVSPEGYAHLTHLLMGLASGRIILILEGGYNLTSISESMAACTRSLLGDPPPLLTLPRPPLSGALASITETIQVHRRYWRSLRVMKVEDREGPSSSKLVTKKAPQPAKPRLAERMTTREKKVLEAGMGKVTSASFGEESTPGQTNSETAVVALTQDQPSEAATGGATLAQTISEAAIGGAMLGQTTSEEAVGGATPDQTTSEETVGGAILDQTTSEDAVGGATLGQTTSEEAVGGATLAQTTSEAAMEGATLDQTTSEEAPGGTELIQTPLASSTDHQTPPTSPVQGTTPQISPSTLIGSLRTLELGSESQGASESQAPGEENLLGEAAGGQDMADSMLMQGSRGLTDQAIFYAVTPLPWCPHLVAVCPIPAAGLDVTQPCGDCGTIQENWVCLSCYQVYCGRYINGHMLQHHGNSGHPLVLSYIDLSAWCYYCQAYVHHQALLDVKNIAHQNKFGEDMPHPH
Put plainly: HDAC enzyme activity assay (fluorogenic, Boc-Lys(acetyl)-AMC), HDAC6. It counts as biochemical. Particulars: class IIb HDAC6; mean ± SD, triplicate.

Data set [5] deals with T3, HDAC8 (Homo sapiens, UniProt Q9BY41).
T3 construct: codon-optimized full-length HDAC8; made in house; host or cells: E. coli BL21(DE3), pET14b vector
T3 sequence (Q9BY41 1-377): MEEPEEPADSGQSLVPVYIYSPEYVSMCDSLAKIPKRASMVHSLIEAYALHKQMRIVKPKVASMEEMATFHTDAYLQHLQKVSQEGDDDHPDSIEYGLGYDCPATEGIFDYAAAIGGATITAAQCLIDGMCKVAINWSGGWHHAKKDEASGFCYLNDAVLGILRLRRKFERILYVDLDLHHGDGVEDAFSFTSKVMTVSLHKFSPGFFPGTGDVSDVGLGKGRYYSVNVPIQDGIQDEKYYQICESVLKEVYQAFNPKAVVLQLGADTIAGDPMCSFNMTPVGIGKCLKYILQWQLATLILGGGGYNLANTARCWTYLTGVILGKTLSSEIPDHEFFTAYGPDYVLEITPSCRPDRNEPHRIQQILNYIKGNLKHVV
Put plainly: HDAC enzyme activity assay (fluorogenic, Boc-Lys(trifluoroacetyl)-AMC), HDAC8. Particulars: class I HDAC8; mean ± SD, triplicate. It counts as biochemical.

Data set [6] has as its system HCT116. As to the kind of experiment: MTT cell proliferation assay, HCT116. The data set is classed as cell-based, human. Particulars: Homo sapiens, read-out: IC50 ± SD HCT116.
For data set [7], the system named is MCF7. Put plainly: MTT cell proliferation assay, MCF7. The data set is classed as cell-based, human. The following applies: Homo sapiens, MCF7, 72 h, read-out: IC50 ± SD MCF7.
Data set [8] has as its system B16. Put plainly: MTT cell proliferation assay, B16. The data set is classed as cell-based, murine. Particulars: Mus musculus, read-out: IC50 ± SD B16.
Data set [9] relates to HEK 293. Put plainly: MTT cell proliferation assay, HEK 293. Particulars: Homo sapiens, read-out: IC50 ± SD HEK 293. It counts as cell-based, human.
In data set [10] the test system is HCC827 cells. Also noted: method as in PMID 34403956. Particulars: strongest against all cancer cell lines, read-out: IC50, antiproliferative; cited from earlier work.
In data set [11] the test system is HDAC. On the set-up: method as in PMID 29223029. The following applies: quinazoline-4-(3H)-one cap group; read-out: IC50 HDAC inhibitory activity; cited from earlier work.
The conditions of data set [12]: cited from earlier work.
Setting [13] is: HCT-116, MTT, 72 h, mean ± SD, triplicate.
The mark [14] stands for this setting: MTT, 72 h, mean ± SD, triplicate.
Where [15] appears, read: B16, MTT, 72 h, mean ± SD, triplicate.
The mark [16] stands for this setting: HEK293, MTT, 72 h, mean ± SD, triplicate.

T1 sequence (P56524 648-1057): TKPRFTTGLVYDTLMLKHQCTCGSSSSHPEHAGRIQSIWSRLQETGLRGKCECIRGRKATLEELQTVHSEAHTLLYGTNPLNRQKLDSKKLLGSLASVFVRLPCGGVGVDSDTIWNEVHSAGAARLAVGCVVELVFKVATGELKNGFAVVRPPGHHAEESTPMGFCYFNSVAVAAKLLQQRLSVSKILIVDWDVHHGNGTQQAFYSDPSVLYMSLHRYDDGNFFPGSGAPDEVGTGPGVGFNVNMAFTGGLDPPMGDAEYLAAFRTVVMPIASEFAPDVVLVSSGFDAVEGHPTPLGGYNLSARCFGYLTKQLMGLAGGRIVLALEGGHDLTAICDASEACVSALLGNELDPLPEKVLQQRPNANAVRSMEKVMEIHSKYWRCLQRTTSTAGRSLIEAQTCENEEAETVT

As for `C=CCn1c(SCC(=O)Nc2cccc(C(=O)/C=C/c3ccc(OC)cc3)c2)nc2ccccc2c1=O` [A], in [1], the IC50 was 1.16 µM.

Consider `C/C(=N\NC(=O)c1cc([N+](=O)[O-])ccc1Cl)c1ccc(NC(=O)CSc2nc3ccccc3c(=O)n2-c2ccc(C)cc2)cc1` [B], for which the half-inhibitory concentration (IC50) in [2] is 11.7 µM.

On to `CCc1ccc(-n2c(SCc3ccc(C(=O)NO)cc3)nc3ccccc3c2=O)cc1` [Compound 5d, 4-(((3-(4-ethylphenyl)-4-oxo-3,4-dihydroquinazolin-2-yl)thio)methyl)-N-hydroxybenzamide], for which the melting point was 150 to 157 °C and 155 to 157 °C. In data set [3], this compound showed an IC50 of 0.64 ± 0.37 µM. Moreover, in [4], half-maximal inhibition (IC50) was put at 0.28 ± 0.06 µM. This compound came in with an IC50 in data set [5] of 2.3 ± 0.8 µM. For the same compound, in data set [6] (setting [13]), the IC50 is 34.5 ± 10.4 µM. In addition, the IC50 in data set [7] (setting [14]) was found to be 21.7 ± 2.47 µM. Further, the half-inhibitory concentration (IC50) in data set [8] (setting [15]) was determined as 29.8 ± 8.72 µM. For the same compound, the IC50 in data set [9] (setting [16]) was > 50 µM.

On to `Cc1ccc(-n2c(SCc3ccc(C(=O)NO)cc3)nc3ccccc3c2=O)cc1C` [Compound 5f, 4-(((3-(3,4-dimethylphenyl)-4-oxo-3,4-dihydroquinazolin-2-yl)thio)methyl)-N-hydroxybenzamide], for which the melting point is 138 to 144 °C and 142 to 144 °C. The compound also returned an IC50 in data set [3] of 1.6 ± 0.9 µM. Besides, 0.49 ± 0.12 µM corresponded to half-maximal inhibition in data set [4] (IC50). The same compound returned an IC50 in data set [5] of 3 ± 1 µM. Also, in data set [6] (setting [13]), the IC50 was > 50 µM. The IC50 in data set [7] (setting [14]) was > 50 µM. In addition, the IC50 in data set [8] (setting [15]) was > 50 µM. The IC50 in [9] (setting [16]) is > 50 µM.

As to `Cc1ccccc1-n1c(SCc2ccc(C(=O)NO)cc2)nc2cc(Cl)ccc2c1=O` [Compound 5k, 4-(((7-chloro-4-oxo-3-(o-tolyl)-3,4-dihydroquinazolin-2-yl)thio)methyl)-N-hydroxybenzamide], the melting point was 180 °C and 178 to 180 °C. The IC50 in data set [3] was > 35 µM. Also, in data set [4], half-maximal inhibition (IC50) required 0.41 ± 0.15 µM. The IC50 in data set [5] is 1.3 ± 0.1 µM. Further, the IC50 in data set [6] (setting [13]) was > 50 µM. For the same compound, the IC50 in data set [7] (setting [14]) was > 50 µM. In [8] (setting [15]), the IC50 is > 50 µM. Moreover, the IC50 in data set [9] (setting [16]) was > 50 µM.

Turning to `Cc1ccc(-n2c(SCc3ccc(C(=O)NO)cc3)nc3cc(Cl)ccc3c2=O)cc1` [Compound 5l, 4-(((7-chloro-4-oxo-3-(p-tolyl)-3,4-dihydroquinazolin-2-yl)thio)methyl)-N-hydroxybenzamide], the melting point is 170 to 175 °C and 173 to 175 °C. Also, in [3], the IC50 worked out at 19 µM. In data set [4], this compound returned a half-maximal inhibitory concentration (IC50) of 3.9 ± 0.4 µM. This compound had an IC50 in data set [5] of 17 µM. Also, the IC50 in data set [6] (setting [13]) is > 50 µM. Moreover, the IC50 in [7] (setting [14]) is > 50 µM. Also, the IC50 in data set [8] (setting [15]) is > 50 µM. In data set [9] (setting [16]), the IC50 is > 50 µM.

As for `O=C(NO)c1ccc(CSc2nc3cc(Cl)ccc3c(=O)n2-c2ccc(Cl)cc2)cc1` [Compound 5n, 4-(((7-chloro-3-(4-chlorophenyl)-4-oxo-3,4-dihydroquinazolin-2-yl)thio)methyl)-N-hydroxybenzamide], the melting point is 230 to 235 °C and 234 to 235 °C. In data set [3], this compound showed an IC50 of 6.7 ± 1.1 µM. Further, half-maximal inhibition in [4] (IC50) was put at 0.32 ± 0.03 µM. In [5], this compound gave a half-maximal inhibitory concentration (IC50) of 0.14 ± 0.02 µM. Also, the IC50 in data set [6] (setting [13]) is > 50 µM. For the same compound, the IC50 in data set [7] (setting [14]) was > 50 µM. Besides, the half-maximal inhibitory concentration (IC50) in [8] (setting [15]) was found to be 33.9 ± 5.12 µM. In addition, the IC50 in data set [9] (setting [16]) was > 50 µM.

For `O=C(c1ccccc1)N(C(=O)c1ccccc1)c1ccc(-c2ccc3ncn(Cc4ccccc4)c(=O)c3c2)cn1` [Compound C], in data set [10], the half-maximal inhibitory concentration (IC50) is 1.12 µM.

With `COc1cc2ncn(Cc3ccc(C(=O)NO)cc3)c(=O)c2cc1OC` [G], the IC50 in [11] is 0.37 µM.

As for `O=C(NO)c1ccc(CN(c2cnccn2)c2cnccn2)cc1` [KA2507], in [12] (phase I/II), the clinical activity result was “prolonged dis-ease stabilization in a subset of patients” and the “toxicity in clinical trial” value is “no significant toxicities”.

For `O=C(CCCCCCNC(=O)c1cnc(N(c2ccccc2)c2ccccc2)nc1)NO` [Ricolinostat, reference compound], the IC50 in [6] (HCT-116, 72 h) was 40.5 ± 7.69 µM; in [7], > 50 µM; in data set [8] (B16, 72 h) it was 89.2 ± 12.5 µM; in data set [9] (HEK293, 72 h), 66.8 ± 10.6 µM. Further, the “outcome of combination therapy with bortezomib and dexamethasone” value in [12] (multiple myeloma) was “safe, well-tolerated, and active against multiple myeloma”. Besides, the “safety of combination with paclitaxel” value in data set [12] (patients with metastatic breast cancer) was “could be safely combined with paclitaxel”. The single-agent therapy outcome in [12] (single agent) is “neither significant toxicities nor clinical responses”.
